This is an account of results in article PMC5485972, “N-Caffeoyltryptamine, a Potent Anti-Inflammatory Phenolic Amide, Suppressed MCP-1 Expression in LPS-stimulated THP-1 Cells and Rats Fed a High-Fat Diet” (International Journal of Molecular Sciences, 2017).

The target of assay [1] is T1, p38 MAP kinase β (Homo sapiens, UniProt Q15759).
T1 construct: gene MAPK11
The assay can be described thus: Promega CMGC-1 kinase selectivity profiling system, ADP-Glo kinase assay. It counts as biochemical. (In ADP-Glo the light output rises with the ADP produced.)

The target in assay [2] is T2, p38 MAP kinase α (Homo sapiens, UniProt Q16539).
T2 construct: gene MAPK14
The assay is described as above. It counts as biochemical.

SMILES strings stand for the structures.

T2 sequence (Q16539 2-360): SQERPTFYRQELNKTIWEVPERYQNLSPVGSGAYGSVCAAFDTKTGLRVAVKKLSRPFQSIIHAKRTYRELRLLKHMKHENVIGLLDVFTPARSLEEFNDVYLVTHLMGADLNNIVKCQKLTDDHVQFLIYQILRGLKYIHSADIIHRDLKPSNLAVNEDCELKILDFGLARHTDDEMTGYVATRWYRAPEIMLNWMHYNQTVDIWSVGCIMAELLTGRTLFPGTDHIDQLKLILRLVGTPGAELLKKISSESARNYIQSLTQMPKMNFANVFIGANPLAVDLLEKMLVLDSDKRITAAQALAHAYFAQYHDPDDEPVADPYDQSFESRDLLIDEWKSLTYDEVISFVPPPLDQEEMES
T1 sequence (Q15759 whole entry): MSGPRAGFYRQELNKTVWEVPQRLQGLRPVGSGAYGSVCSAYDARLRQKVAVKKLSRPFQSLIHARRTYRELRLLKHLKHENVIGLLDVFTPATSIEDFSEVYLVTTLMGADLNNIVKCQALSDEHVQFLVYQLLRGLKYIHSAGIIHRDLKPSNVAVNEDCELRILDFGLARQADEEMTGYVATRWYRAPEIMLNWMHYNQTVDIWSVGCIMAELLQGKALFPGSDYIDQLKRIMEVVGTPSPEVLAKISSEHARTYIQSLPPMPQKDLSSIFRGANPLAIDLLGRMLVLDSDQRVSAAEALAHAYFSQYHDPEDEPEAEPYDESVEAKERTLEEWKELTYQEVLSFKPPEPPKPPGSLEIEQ

On to `O=C(/C=C/c1ccc(O)c(O)c1)NCCc1c[nH]c2ccccc12` [N-caffeoyltryptamine], for which the IC50 – broadly, the concentration needed to halve the response being measured – was 18.3 µM in assay [1] and 16.7 µM in assay [2].
